{
  "source": "patent US20010053349A1",
  "about": "“Artificial nail sanitizing solution” (priority 2000, published 2001)",
  "origin": "cited, not measured here",
  "test_system": "nail fungus",
  "details": "oral compounds; average; treatment of documented nail fungus",
  "data": [
    {"smiles": "CN(C/C=C/C#CC(C)(C)C)Cc1cccc2ccccc12", "note": "[terbinafine]", "values": [
      {"measurement": "Clinical and mycological cure rates", "result": 70, "unit": "%"}
    ]}
  ]
}
